Laboratory results taken from patent publication US12472193B2, “Methods and compositions for treating and preventing respiratory related diseases and conditions with xylitol-headgroup lipid analogs” (National Jewish Health, priority 2017, dated 2025).
“Also recorded” adds a separate entry of the source.

Tests used:
TLR 2/1 = biological target: T1, TLR 2/1 (Mus musculus, UniProt Q9EPQ1+Q9QUN7); experiment: Pam3Cys-induced TNFα release by RAW264.7 cells (TLR 2/1 antagonism); format: cell-based; settings: for suppression of TLR 2/1 activation (TNFα release): Pam3Cys, 4 hours; for TLR2/1 antagonist activity: reduction in cytokine secretion vs activating TLR ligand alone
T1 construct: endogenous in cells; host or cells: RAW264.7 (ATCC)
T1 sequence (Q9QUN7 25-784): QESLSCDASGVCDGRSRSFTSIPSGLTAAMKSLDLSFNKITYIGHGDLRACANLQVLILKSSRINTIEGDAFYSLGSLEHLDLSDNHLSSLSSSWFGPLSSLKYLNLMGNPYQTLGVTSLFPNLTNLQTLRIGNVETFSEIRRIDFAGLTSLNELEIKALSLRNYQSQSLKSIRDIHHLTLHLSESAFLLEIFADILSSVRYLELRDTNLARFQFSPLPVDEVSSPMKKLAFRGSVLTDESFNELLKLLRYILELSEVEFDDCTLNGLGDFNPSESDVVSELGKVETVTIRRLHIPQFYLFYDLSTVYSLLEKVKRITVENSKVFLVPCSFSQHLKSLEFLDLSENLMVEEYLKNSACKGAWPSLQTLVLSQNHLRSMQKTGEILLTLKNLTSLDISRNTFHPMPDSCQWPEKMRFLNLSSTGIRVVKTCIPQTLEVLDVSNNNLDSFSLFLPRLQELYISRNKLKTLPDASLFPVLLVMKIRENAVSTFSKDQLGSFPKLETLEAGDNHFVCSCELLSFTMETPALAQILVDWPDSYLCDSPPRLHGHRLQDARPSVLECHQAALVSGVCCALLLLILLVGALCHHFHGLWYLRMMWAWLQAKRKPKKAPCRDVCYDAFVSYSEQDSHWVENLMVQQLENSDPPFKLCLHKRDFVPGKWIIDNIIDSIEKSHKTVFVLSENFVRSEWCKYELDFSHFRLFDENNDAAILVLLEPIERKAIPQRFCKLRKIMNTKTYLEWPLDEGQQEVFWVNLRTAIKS
T1 sequence (Q9EPQ1 25-795 limits assumed): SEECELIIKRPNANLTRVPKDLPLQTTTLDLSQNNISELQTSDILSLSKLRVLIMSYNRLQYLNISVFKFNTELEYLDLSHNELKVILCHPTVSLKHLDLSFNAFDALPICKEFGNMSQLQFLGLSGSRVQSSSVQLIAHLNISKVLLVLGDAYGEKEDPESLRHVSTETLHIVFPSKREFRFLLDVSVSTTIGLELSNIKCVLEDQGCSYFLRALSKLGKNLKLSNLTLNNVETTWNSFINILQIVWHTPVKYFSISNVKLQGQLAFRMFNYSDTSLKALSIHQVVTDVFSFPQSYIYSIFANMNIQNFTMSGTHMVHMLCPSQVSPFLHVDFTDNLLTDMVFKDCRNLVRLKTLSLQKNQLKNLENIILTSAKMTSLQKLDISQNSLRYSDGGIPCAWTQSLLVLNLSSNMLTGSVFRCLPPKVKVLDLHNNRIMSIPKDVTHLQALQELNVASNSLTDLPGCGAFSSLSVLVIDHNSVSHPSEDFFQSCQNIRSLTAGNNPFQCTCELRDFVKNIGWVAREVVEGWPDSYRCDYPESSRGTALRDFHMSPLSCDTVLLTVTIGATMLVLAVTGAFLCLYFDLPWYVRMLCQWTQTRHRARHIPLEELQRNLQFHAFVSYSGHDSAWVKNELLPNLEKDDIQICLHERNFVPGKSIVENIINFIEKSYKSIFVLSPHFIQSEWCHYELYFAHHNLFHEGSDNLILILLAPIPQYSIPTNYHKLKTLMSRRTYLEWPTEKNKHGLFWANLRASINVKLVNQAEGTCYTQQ
Description: The mouse macrophage cell line, RAW264.7, was obtained from ATCC and maintained in DMEM, supplemented with 10% bovine growth serum and 1× penicillin streptomycin. Cells were maintained at 37° C. with 5% carbon dioxide: 95% air atmosphere within the incubator. Experiments were completed in a 96-well plate where cells were seated at a density of 1×10^5 cells per well, 24 prior to stimulation with TLR agonists and antagonists. Lipids were dried under a stream of nitrogen, hydrated with phosphate-buffered saline (PBS) at 37° C. for one hour, followed by water bath sonication to create liposomes. Each condition for cell stimulation and antagonism was prepared in DMEM in a separate tube and consisted of: control, TLR agonist, TLR agonist+lipid, and lipid alone. 100 μL aliquots of medium+agonists+antagonists were added to each well and incubated at 37° C. for 4 hours. Subsequently, the media were collected, diluted and an enzyme-linked immunosorbent assay (ELISA) was performed to quantify TNFα release by cells.
The ability of xylitol lipid analogs to suppress the activation of TLR 2 heterodimers was assessed. Pam3Cys was used to selectively stimulate TLR 2/1 signaling in RAW264.7 cells and MALP-2 was used as a TLR 2/6 selective agonist also in RAW264.7 cells. RAW264.7 cells were stimulated with Pam3Cys in the absence, or presence of PX lipids for 4 hours. Following incubation, media were collected, diluted and analyzed for TNFα release as a consequence of TLR activation. Results for analog activity against TLR 2/1 activation was assessed at two concentrations of phospholipid and are summarized in FIGS. 4A and 4B.
Initially, activity of xylitol lipid analogs was assessed at 100 μg/mL and it was unclear whether there was a real antagonist effect especially when compared to POPG. Experiments were repeated with a 200 μg/mL concentration of lipid to determine the ability of PX lipids to suppress TLR 2/1 activation in the presence of Pam3Cys. […] DPPX could have an effect on TLR 2/1 signaling at high concentrations.

RSV = experiment: Western blot analysis of phospholipid interference with RSV binding to HEp2 cells; format: cell-based, human RSV A2 strain; settings: 50 μg/mL lipid, MOI 2.5, 2 hr
Description: HEp2 cells were plated in a 48-well plate at a density of 1×10^5 per well, 48-hours prior to performing binding studies. A multiplicity of infection (MOI) of 2.5 was used and conditions of a control with no RSV, RSV alone and RSV plus 50 μg/mL of selected lipids were added to cells for a 2-hour incubation at 18° C. This lower temperature was used so that RSV would adsorb to the cell surface with minimal endocytosis. After binding, cells were washed 4 times with cold PBS to remove any unattached virus. 80 μL of SDS-PAGE loading buffer (sample buffer+protease inhibitor+DTT) was added to each well and the plate was set in boiling water for 1 minute to lyse cells and solubilize proteins. Cell lysates were recovered by scraping and pipteing and stored at −20° C. Subsequently, thawed lysates were boiled for 5 min, and proteins were resolved on 8-16% gradient Tris-SDS-polyacrylamide gels. The separated proteins were transferred to nitrocellulose membranes and subsequently incubated in blocking buffer containing 20 mM Tris-HCl buffer (pH 7.6), 137 mM NaCl, 0.1% Tween 20, and 5% nonfat milk for 1 hour. After blocking, primary RSV antibody conjugated to HRP was diluted 1:500 in blocking solution, added to the membrane and incubated overnight at 4° C. The membranes were washed with TBS containing 0.1% Tween for 30 min, replacing the buffer every 10 min. The immunoreactive protein was detected using coumaric acid and luminol reagents and exposed to film. Developed films were scanned and Image J software was used for protein quantification. Beta-Actin was used a control for amount of protein loaded.
Because binding of lipid to RSV in a biochemical assay was not a good predictor of antiviral activity, PX lipids were tested for activity preventing viral attachment to the surface of cells. HEp2 cells were plated in a 48-well plate at a density of 1×10^5 per well, 48 hours prior to viral adsorption. RSV was added to cells at multiplicity of infection (MOI) 2.5 in the absence or presence of 50 μg/mL of select xylitol lipids. […] The moderately effective antiviral, DPPX was selected and the ineffective antiviral, 14:0 DEPX was selected. Viral adsorption to cells was performed at 18° C. to minimize endocytosis. RSV was incubated with HEp2 cells for 2 hours, rotating the plate every 30 minutes. Cells were washed with cold PBS to remove unbound virus and cells were lysed and collected. Cell lysates were electrophoresed on an SDS-PAGE gel, and transferred to nitrocellulose membrane. The RSV G protein was detected with antibody and Beta-actin was used as a protein loading control. The results are summarized and quantified in FIGS. 9A and 9B. In more detail, monolayers of HEp2 cells were incubated with RSV at a stoichiometry of 2.5 infectious particles/cell, at 0° C., to prevent endocytosis of virions. Following a 2 hr incubation the monolayers were washed three times with cold saline to remove unbound virus, and then the cells were harvested in a denaturing solution. The cell extracts were subjected to electrophoresis under reducing and denaturing conditions and the separated proteins were transferred to nitrocellulose. Viral proteins were detected by immunoblotting with polyclonal anti-RSV antibody and enhanced chemiluminescence. The immunoreactive bands were normalized using actin immunoblots. The immunoreactive viral proteins were quantified using Image J software. […] In contrast, POPG (PG) inhibits viral attachment by ˜85%, and the xylitol phospholipids 14:0 DEPX, POPX, 16:1 DPPX AND 18:1 DEPX inhibit viral attachment in the range of 80-90%.

Structure (SMILES)	suppression of TLR 2/1 activation (TNFα release) (TLR 2/1; 100 μg/mL lipid)	suppression of TLR 2/1 activation (TNFα release) (TLR 2/1; 200 μg/mL lipid)	TLR2/1 antagonist activity (TLR 2/1)	inhibition of RSV attachment to HEp2 cells (RSV)	suppression of TLR 2/1 activation (TNFα release) (TLR 2/1; 200 μg/mL lipid, listed as 18:2 DEPX)	inhibition of viral attachment to HEp2 cells (RSV)
CCCCCCCCCCCCCCOC[C@H](COP(=O)(O)OCC(O)C(O)C(O)CO)OCCCCCCCCCCCCCC (mixture of isomers) [14:0 DEPX, sn-1-O-myristyl, sn-2-O-myristyl sn-3 glycerol phosphoxylitol]	modest antagonists	inhibit TLR2/1 activation to almost the same extent as the bioactive lipid POPG; also recorded: strongly suppressed; also recorded: suppressed TLR 2/1 activation	+ (cutoff being greater than a 50% reduction in cytokine secretion compared to activating TLR ligand alone)	appears to prevent viral binding to cells; also recorded: prevented RSV from binding to the cell surface	–	–
CCCCCCC=CCCCCCCCC(=O)OCC(COP(=O)(O)OCC(O)C(O)C(O)CO)OC(=O)CCCCCCCC=CCCCCCC (mixture of isomers) [16:1 DPPX, sn-1-palmitoleoyl, sn-2-palmitoleoyl sn-3 glycerol phosphoxylitol]	did not appear to suppress activation	inhibit TLR2/1 activation to almost the same extent as the bioactive lipid POPG; also recorded: strongly suppressed; also recorded: suppressed TLR 2/1 activation	+ (cutoff being greater than a 50% reduction in cytokine secretion compared to activating TLR ligand alone)	prevented RSV attachment to HEp2 cells	–	–
CCCCCCCCC=CCCCCCCCCOCC(COP(=O)(O)OCC(O)C(O)C(O)CO)OCCCCCCCCC=CCCCCCCCC (mixture of isomers) [18:1 DEPX, sn-1-O-octadecenyl, sn-2-O-octadecenyl sn-3 glycerol phosphoxylitol]	modest antagonists	inhibit TLR2/1 activation to almost the same extent as the bioactive lipid POPG; also recorded: strongly suppressed; also recorded: suppressed TLR 2/1 activation	+ (cutoff being greater than a 50% reduction in cytokine secretion compared to activating TLR ligand alone)	inhibit attachment; also recorded: prevented RSV attachment to HEp2 cells	–	–
CCCCCC=CCC=CCCCCCCCC(=O)OCC(COP(=O)(O)OCC(O)C(O)C(O)CO)OC(=O)CCCCCCCC=CCC=CCCCCC (mixture of isomers) [18:2 DLPX, sn-1-linoleoyl, sn-2-linoleoyl sn-3 glycerol phosphoxylitol]	modest antagonists	strongly suppressed; also recorded: suppressed TLR 2/1 activation	+ (cutoff being greater than a 50% reduction in cytokine secretion compared to activating TLR ligand alone)	–	inhibit TLR2/1 activation to almost the same extent as the bioactive lipid POPG	–
CCCCCCCCCCCCCC(=O)OC[C@H](COP(=O)(O)OCC(O)C(O)C(O)CO)OC(=O)CCCCCCCCCCCCC (mixture of isomers) [DMPX, sn-1-myristoyl, sn-2-myristoyl sn-3 glycerol phosphoxylitol]	ineffective at both concentrations	not effective antagonists	–	–	–	–
CCCCCCCCC=CCCCCCCCC(=O)OCC(COP(=O)(O)OCC(O)C(O)C(O)CO)OC(=O)CCCCCCCC=CCCCCCCCC (mixture of isomers) [DOPX, sn-1-oleoyl, sn-2-oleoyl sn-3 glycerol phosphoxylitol]	modest antagonists	inhibit TLR2/1 activation to almost the same extent as the bioactive lipid POPG; also recorded: strongly suppressed; also recorded: suppressed TLR 2/1 activation	+ (cutoff being greater than a 50% reduction in cytokine secretion compared to activating TLR ligand alone)	inhibit attachment	–	–
CCCCCCCCCCCCCCCC(=O)OCC(COP(=O)(O)OCC(O)C(O)C(O)CO)OC(=O)CCCCCCCCCCCCCCC (stereo not drawn) [DPPX, sn-1-palmitoyl, sn-2-palmitoyl sn-3 glycerol phosphoxylitol]	–	weakly effective	–	not inhibited; also recorded: did not	–	–
CCCCCCCCCCCCCCCCCC(=O)OCC(COP(=O)(O)OCC(O)C(O)C(O)CO)OC(=O)CCCCCCCCCCCCCCCCC (stereo not drawn) [DSPX, sn-1-stearoyl, sn-2-stearoyl sn-3 glycerol phosphoxylitol]	ineffective at both concentrations	not effective antagonists	–	–	–	–
CCCCCCCC/C=C\CCCCCCCC(=O)O[C@H](COC(=O)CCCCCCCCCCCCCCC)COP(=O)([O-])OCC[N+](C)(C)C [POPC, 1-palmitoyl-2-oleoyl-sn-glycero-3-phosphocholine, reference compound]	unaffected	unaffected	–	not inhibited	–	–
CCCCCCCC/C=C\CCCCCCCC(=O)O[C@H](COC(=O)CCCCCCCCCCCCCCC)COP(=O)(O)OCC(O)CO (stereo partly drawn) [POPG, palmitoyl-oleoyl-phosphatidylglycerol, reference compound]	markedly inhibited	markedly inhibited	–	–	–	~85%
CCCCCCCC/C=C\CCCCCCCC(=O)O[C@H](COC(=O)CCCCCCCCCCCCCCC)COP(=O)(O)OCC(O)C(O)C(O)CO (stereo partly drawn) [POPX, sn-1-palmitoyl, sn-2-oleoyly sn-3 glycerol phosphoxylitol]	modest antagonists	inhibit TLR2/1 activation to almost the same extent as the bioactive lipid POPG; also recorded: strongly suppressed; also recorded: suppressed TLR 2/1 activation	+ (cutoff being greater than a 50% reduction in cytokine secretion compared to activating TLR ligand alone)	prevented RSV attachment to HEp2 cells	–	–
